Measurements taken from US6355799B1, “Substituted benzene compounds, process for their preparation, and herbicidal and defoliant compositions containing them” (ISK Americas Incorporated, priority 1997, dated 2002).

Key:
Assay type in all cases: in vivo
[1] = test system: barnyardgrass (Echinochloa crus-galli, ECHCG); assay: Post-emerge test, greenhouse herbicide activity screening; settings: post-emerge, 14 days after application, rating scale 0-100
In short: (§1)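 Fourteen days after spraying, crop and weed injury was graded visually from 0, no effect, to 100, every plant dead. Test substances were dissolved in acetone and applied at 15–1000 g ai/ha with a flat-fan nozzle. Application was either pre-emergence, one day after sowing, or post-emergence at the 2–3 leaf stage.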

[2] = test system: lambsquarters (Chenopodium album, CHEAL); assay: as above; settings: post-emerge, 14 days after application, rating scale 0-100
In short: as §1

[3] = test system: ivyleaf morningglory (Ipomoea hederacea, IPOHE); assay: as above; settings: post-emerge, 14 days after application, rating scale 0-100
In short: as §1

[4] = test system: large crabgrass (Digitaria sanguinalis, DIGSA); assay: as above; settings: post-emerge, 14 days after application, rating scale 0-100
In short: as §1

[5] = test system: green foxtail (Setaria viridis, SETVI); assay: as above; settings: post-emerge, 14 days after application, rating scale 0-100
In short: as §1

[6] = test system: velvetleaf (Abutilon theophrasti, ABUTH); assay: as above; settings: post-emerge, 14 days after application, rating scale 0-100
In short: as §1

[7] = test system: sicklepod (Cassia obtusifolia, CASOB); assay: as above; settings: post-emerge, 14 days after application, rating scale 0-100
In short: as §1

[8] = test system: redroot pigweed (Amaranthus retroflexus, AMARE); assay: as above; settings: post-emerge, 14 days after application, rating scale 0-100
In short: as §1

[9] = test system: johnsongrass (Sorghum halepense, SORHA); assay: as above; settings: post-emerge, 14 days after application, rating scale 0-100
In short: as §1

[10] = test system: field corn (Zea mays L., var. Dekalb 535, CORN); assay: Post-emerge test, crop safety; settings: post-emerge, 14 days after application, rating scale 0-100
In short: (§2)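 Sandy loam pots; pre-emerge: sown 1 d pre-spray, surface-watered after, then bottom-watered. Post-emerge: sown 8–21 d before, 2–3 leaf stage, + 0.25% v/v NIS, bottom-watered. Acetone, 187 l/ha track spray, 15–1000 g ai/ha. 0–100 injury score, day 14.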

[11] = test system: upland rice (Oryza sp., var. Tebonnet, RICE); assay: Post-emerge test, crop safety; settings: post-emerge, 14 days after application, rating scale 0-100
In short: as §2

[12] = test system: barnyardgrass (Echinochloa crus-galli, ECHCG); assay: Pre-emerge test, greenhouse herbicide activity screening; settings: rated 14 days after application, 0 = no damage, 100 = complete death
In short: as §2

[13] = test system: lambsquarters (Chenopodium album, CHEAL); assay: as above; settings: rated 14 days after application, 0 = no damage, 100 = complete death
In short: as §2

[14] = test system: ivyleaf morningglory (Ipomoea hederacea, IPOHE); assay: as above; settings: rated 14 days after application, 0 = no damage, 100 = complete death
In short: as §2

[15] = test system: large crabgrass (Digitaria sanguinalis, DIGSA); assay: as above; settings: rated 14 days after application, 0 = no damage, 100 = complete death
In short: as §2

[16] = test system: green foxtail (Setaria viridis, SETVI); assay: as above; settings: rated 14 days after application, 0 = no damage, 100 = complete death
In short: as §2

[17] = test system: velvetleaf (Abutilon theophrasti, ABUTH); assay: as above; settings: rated 14 days after application, 0 = no damage, 100 = complete death
In short: as §2

[18] = test system: sicklepod (Cassia obtusifolia, CASOB); assay: as above; settings: rated 14 days after application, 0 = no damage, 100 = complete death
In short: as §2

[19] = test system: johnsongrass (Sorghum halepense, SORHA); assay: as above; settings: rated 14 days after application, 0 = no damage, 100 = complete death
In short: as §2

[20] = test system: redroot pigweed (Amaranthus retroflexus, AMARE); assay: as above; settings: rated 14 days after application, 0 = no damage, 100 = complete death
In short: as §2

[21] = test system: field corn (Zea mays L., var. Dekalb 535, CORN); assay: Pre-emerge test, crop safety; settings: rated 14 days after application, 0 = no damage, 100 = complete death
In short: (§3)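 Compounds in acetone were track-sprayed at 187 l/ha, 15–1000 g ai/ha, onto sandy loam pots. Pre-emerge seeds were sown one day before spraying, with surface watering afterwards. Post-emerge plants were at the 2–3 leaf stage and sprayed with 0.25% v/v non-ionic surfactant. Injury was rated 0–100 at 14 days.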

[22] = test system: upland rice (Oryza sp., var. Tebonnet, RICE); assay: Pre-emerge test, crop safety; settings: rated 14 days after application, 0 = no damage, 100 = complete death
In short: as §3

## COc1c(Cl)cc(F)c(-n2c(=O)cc(C(F)(F)F)n(C)c2=O)c1N(C(=O)C=Cc1ccccc1Cl)C(=O)C=Cc1ccccc1Cl [2-83]
[1]; 63 g ai/ha
  phytotoxicity rating ECHCG: 0
[1]; 250 g ai/ha
  phytotoxicity rating ECHCG: 0
[2]; 63 g ai/ha
  phytotoxicity rating CHEAL: 20
[2]; 250 g ai/ha
  phytotoxicity rating CHEAL: 50
[3]; 63 g ai/ha
  phytotoxicity rating IPOHE: 10
[3]; 250 g ai/ha
  phytotoxicity rating IPOHE: 20
[4]; 63 g ai/ha
  phytotoxicity rating DIGSA: 0
[4]; 250 g ai/ha
  phytotoxicity rating DIGSA: 0
[5]; 63 g ai/ha
  phytotoxicity rating SETVI: 0
[5]; 250 g ai/ha
  phytotoxicity rating SETVI: 0
[6]; 63 g ai/ha
  phytotoxicity rating ABUTH: 50
[6]; 250 g ai/ha
  phytotoxicity rating ABUTH: 70
[7]; 63 g ai/ha
  phytotoxicity rating CASOB: 0
[7]; 250 g ai/ha
  phytotoxicity rating CASOB: 0
[8]; 63 g ai/ha
  phytotoxicity rating AMARE: 40
[8]; 250 g ai/ha
  phytotoxicity rating AMARE: 90
[9]; 63 g ai/ha
  phytotoxicity rating SORHA: 0
[9]; 250 g ai/ha
  phytotoxicity rating SORHA: 0
[10]; 63 g ai/ha
  phytotoxicity rating CORN: 0
[10]; 250 g ai/ha
  phytotoxicity rating CORN: 0
[11]; 63 g ai/ha
  phytotoxicity rating RICE: 100
[11]; 250 g ai/ha
  phytotoxicity rating RICE: 0
[12]; 63 g ai/ha
  Pre-emerge Herbicidal Activity, phytotoxicity rating (0-100), ECHCG: 0
[12]; 250 g ai/ha
  Pre-emerge Herbicidal Activity, phytotoxicity rating (0-100), ECHCG: 0
[13]; 63 g ai/ha
  Pre-emerge Herbicidal Activity, phytotoxicity rating (0-100), CHEAL: 30
[13]; 250 g ai/ha
  Pre-emerge Herbicidal Activity, phytotoxicity rating (0-100), CHEAL: 90
[14]; 63 g ai/ha
  Pre-emerge Herbicidal Activity, phytotoxicity rating (0-100), IPOHE: 0
[14]; 250 g ai/ha
  Pre-emerge Herbicidal Activity, phytotoxicity rating (0-100), IPOHE: 0
[15]; 63 g ai/ha
  Pre-emerge Herbicidal Activity, phytotoxicity rating (0-100), DIGSA: 0
[15]; 250 g ai/ha
  Pre-emerge Herbicidal Activity, phytotoxicity rating (0-100), DIGSA: 30
[16]; 63 g ai/ha
  Pre-emerge Herbicidal Activity, phytotoxicity rating (0-100), SETVI: 0
[16]; 250 g ai/ha
  Pre-emerge Herbicidal Activity, phytotoxicity rating (0-100), SETVI: 40
[17]; 63 g ai/ha
  Pre-emerge Herbicidal Activity, phytotoxicity rating (0-100), ABUTH: 10
[17]; 250 g ai/ha
  Pre-emerge Herbicidal Activity, phytotoxicity rating (0-100), ABUTH: 100
[18]; 63 g ai/ha
  Pre-emerge Herbicidal Activity, phytotoxicity rating (0-100), CASOB: 0
[18]; 250 g ai/ha
  Pre-emerge Herbicidal Activity, phytotoxicity rating (0-100), CASOB: 0
[19]; 63 g ai/ha
  Pre-emerge Herbicidal Activity, phytotoxicity rating (0-100), SORHA: 0
[19]; 250 g ai/ha
  Pre-emerge Herbicidal Activity, phytotoxicity rating (0-100), SORHA: 20
[20]; 63 g ai/ha
  Pre-emerge Herbicidal Activity, phytotoxicity rating (0-100), AMARE: 60
[20]; 250 g ai/ha
  Pre-emerge Herbicidal Activity, phytotoxicity rating (0-100), AMARE: 100
[21]; 63 g ai/ha
  Pre-emerge phytotoxicity rating (0-100), crop damage, CORN: 0
[21]; 250 g ai/ha
  Pre-emerge phytotoxicity rating (0-100), crop damage, CORN: 0
[22]; 63 g ai/ha
  Pre-emerge phytotoxicity rating (0-100), crop damage, RICE: 0
[22]; 250 g ai/ha
  Pre-emerge phytotoxicity rating (0-100), crop damage, RICE: 0
